Test [1] concerns the target T1, endogenous wild-type H-Ras protein (Mus musculus, UniProt Q61411).
T1 construct: an endogenous wild-type K-Ras protein and wild-type H-Ras protein; from tissue; host or cells: mouse pancreas and colon
In words: Degradation of endogenous wild-type H-Ras protein in mouse pancreas and colorectal tissue, Western blot analysis. Type of test: in vivo. Particulars: C57BL/6J mice, intraperitoneal, 48 hours, FIG. 8. As for the experimental part: (§1) In Example 9, in a mouse individual to which TUS-007 had been administered, the degradation (knockdown) of an endogenous wild-type K-Ras protein and wild-type H-Ras protein was evaluated by Western blot analysis.
(§2) TUS-007 was dissolved in DMSO, and then dissolved in corn oil so that the concentration of DMSO was 10 vol %, and then intraperitoneally administered to C57BL/6J wild-type mice (8 to 9 weeks old, male) (CLEA Japan, Inc.) in an amount of 40 mg/kg body weight or 80 mg/kg body weight (n=3 to 4). Furthermore, in addition to a group in which TUS-007 was administered, a group in which Ras-SOS had been administered in a dose of 80 mg/kg body weight was prepared. As a control, an injection carrier (corn oil containing 10 vol % DMSO) was used. The mice were kept under an environment of ad libitum access to food and water. The mice were dissected under deep anesthesia 48 hours after administration. The pancreas and colon were excised, and flash frozen in liquid nitrogen.
(§3) The frozen pancreas and colon were each triturated, and then TKM tissue lysis buffer (50 mM triethanolamine (pH 7.8), 50 mM KCl, 5 mM MgCl2, 0.25 M sucrose, 1 mM PMSF, Protein Inhibitors Cocktail-EDTA free (Nacalai Tesque, Inc.), 1 mM DTT, and a recombinant RNase inhibitor (0.2 U/μL, Takara Bio) were added, and subjected to centrifugation (at 13800 rpm×30 minutes, 4° C.), and the supernatants (pancreatic tissue extract and colorectal tissue extract) were collected. The concentration of the extracted proteins was quantified with a spectrophotometer.
(§4) Each tissue extract collected was subjected to Western blot analysis. […]
(§5) After electrophoresis, proteins were transferred to a PVDF membrane (Immobion™-P, Millipore) under conditions of 200 mA and 90 minutes using a tank-type blotting device and a transfer buffer (25 mM Tris-HCl, 195 mM glycine, 0.01% SDS, 15% methanol). […] Subsequently, the membrane was treated with a chemiluminescence reagent Immobilon™ Western (Millipore), and then chemiluminescence was detected using a lumino image analyzer LAS-3000 (FUJIFILM Corporation).

Test [2] deals with T2, endogenous wild-type K-Ras protein (Mus musculus, UniProt P32883).
T2 construct: an endogenous wild-type K-Ras protein and wild-type H-Ras protein; from tissue; host or cells: mouse pancreas and colon
The experiment in a line: Degradation of endogenous wild-type K-Ras protein in mouse pancreas and colorectal tissue, Western blot analysis. It is filed as in vivo. Particulars: C57BL/6J mice, intraperitoneal, 48 hours, FIG. 8. The protocol: as §1, §2, §3, §4, §5
(In general: Immunoblotting shows a protein as a band on a membrane.)

Test [3] deals with T3, G12D mutant K-Ras protein (Homo sapiens, UniProt P01116, G12D).
T3 construct: expressed in transfected cells; host or cells: HeLa
In words: Degradation (knockdown) of G12D mutant K-Ras protein forcibly expressed in HeLa cells, Western blot analysis. Type of test: cell-based. To be noted: FIG. 4. The protocol:
In Example 5, degradation (knockdown) of the G12D mutant K-Ras protein forcibly expressed in HeLa cells through TUS-007 was evaluated by Western blot analysis.
A plasmid expressing the G12D mutant K-Ras protein (K-Ras-G12D) was prepared, as in Example 4.
As in Example 4, the plasmid was introduced into HeLa cells to transiently overexpress a G12D mutant K-Ras protein or a DsRed protein for comparison in the cells. HeLa cells into which the plasmid had been introduced were seeded in a 24-well plate at a cell density of 4×10^4 cells/well, and then cultured under conditions of 37° C. and 5 vol % CO2 for 40 hours.
TUS-007 was added to HeLa cells as in Example 4. Furthermore, in addition to an experiment group in which a DMSO solution containing TUS-007 had been added, an experiment group in which a DMSO solution containing Ras-SOS-NH2 had been added was prepared. DMSO was used as a control.
As in Example 3, degradation of a G12D mutant K-Ras protein through TUS-007 was evaluated by Western blot analysis.

The mark [4] stands for this setting: 40 or 80 mg/kg, pancreatic tissue.
Where [5] appears, read: TUS-007 40 or 80 mg/kg, Ras-SOS 80 mg/kg, pancreas and colon.

T1 sequence (Q61411 whole entry): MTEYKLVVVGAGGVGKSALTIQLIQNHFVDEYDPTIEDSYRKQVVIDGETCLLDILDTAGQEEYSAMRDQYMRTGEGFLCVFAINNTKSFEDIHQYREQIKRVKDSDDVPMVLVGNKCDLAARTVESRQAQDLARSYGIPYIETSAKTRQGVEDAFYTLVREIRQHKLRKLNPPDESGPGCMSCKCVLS
T2 sequence (P32883 whole entry): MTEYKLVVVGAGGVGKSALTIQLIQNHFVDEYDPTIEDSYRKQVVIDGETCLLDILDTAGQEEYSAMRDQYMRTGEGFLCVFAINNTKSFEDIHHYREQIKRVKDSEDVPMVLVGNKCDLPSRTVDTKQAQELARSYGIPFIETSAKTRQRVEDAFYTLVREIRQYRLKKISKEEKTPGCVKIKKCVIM

Consider `CCC(C)[C@H](NC(=O)CCCCCCNC(=O)[C@H](CC(C)C)NC(=O)CNC(=O)c1cc(Cl)ccc1Cl)C(=O)Nc1ccc2[nH]c(Cc3c[nH]c4ccccc34)nc2c1` (stereo in doubt) [TUS-007], for which, in test [1] (setting [4]), the “amount of the endogenous wild-type H-Ras protein in the pancreatic tissue (Western blot)” value is “remarkably reduced in the pancreatic tissue”. In addition, the “amount of the endogenous wild-type H-Ras protein in mouse tissues (Western blot)” value in test [1] (setting [5]) was “reduced in a concentration-dependent manner”. Further, in test [2] (setting [4]), the “amount of the endogenous wild-type K-Ras protein in the pancreatic tissue (Western blot)” value was “remarkably reduced in the pancreatic tissue”. In test [2] (setting [5]), the “amount of the endogenous wild-type K-Ras protein in mouse tissues (Western blot)” value was “reduced in a concentration-dependent manner”. The “amount of the G12D mutant K-Ras protein (Western blot)” value in test [3] is recorded as “the amount of the G12D mutant K-Ras protein was reduced in a concentration-dependent manner”.

The record behind these values is patent US11052154B2, “Ras protein degradation inducing molecule and pharmaceutical composition” (Tokyo University of Science Foundation, priority 2016, dated 2021).
